Test results published in paper PMC5976936 (2018).

How the values were obtained:
[1] = test system: G4_1-4 (DNA, G4) CCGGGGCGGGCCGGGGGCGGGGTC; assay: ECD thermal melting; conditions: KCl concentration not stated for this experiment; 50 mM Tris-HCl pH 7.4; 10 µM TMPyP4, 5 µM DNA
[2] = test system: G4mod1 (DNA, G4, 5-hydroxymethylcytosine at 7) CCGGGGCGGGCCGGGGGCGGGGTC; assay: ECD thermal melting; conditions: KCl concentration not stated for this experiment; 50 mM Tris-HCl pH 7.4; 10 µM TMPyP4, 5 µM DNA

In the case of C[n+]1ccc(-c2c3nc(c(-c4cc[n+](C)cc4)c4ccc([nH]4)c(-c4cc[n+](C)cc4)c4nc(c(-c5cc[n+](C)cc5)c5ccc2[nH]5)C=C4)C=C3)cc1, the ΔTM [1] is reported as 12 °C and the ΔTM [2] is reported as 12 °C.
